Here are results for 5 molecules from patent publication US12280051B2, “Pharmaceutical composition for topical wound treatment” (CONSEJO NACIONAL DE INVESTIGACIONES CIENTIFICAS Y TECNICAS, priority 2021, dated 2025).

Data set [1] in a line: Chelating capacity: remaining Calcium (unchelated). Conditions: pH 7.0. Format: physicochemical. The method, then:
The following solutions were prepared in Mixing solvent (MS) at pH 7.0. All solutions were supplemented with ZnCl2 (1 ppm), CaCl2 (100 ppm) and MgCl2 (25 ppm). The concentrations of Zn, Ca and Mg used here, were close to those typically found in exudates from chronic wounds. The pH chosen for the reaction (7.0) would result from the combination of compositions of present invention (pH 5.5) and the exudate from a chronic wound (pH 8.5). Prepared solutions were: EDTA (0.25, 0.50 and 0.75 mg/mL) as indicated in example 1; M0, M13, […] were elaborated according to examples 18 to 21. and LAPS deproteinized: Over a LAPS 24 h sample obtained according to example 1, a deproteinization process was performed using reagents and indications of the commercial kit employed. Measurement of remaining Calcium (unchelated) in the prepared solutions: A commercial Calcium measurement kit (Wiener Lab) was used. This is a colorimetric method based on the reaction of calcium with o-cresolphthalein complexone (o-CPC) at alkaline pH, giving a photocolorimetrically measurable magenta complex at 570 nm.

The nature of data set [2]: Chelating capacity: remaining Zinc (unchelated). The settings on record: pH 7.0; EDTA at all concentrations tested; combination of Zinc, Calcium and Magnesium. Format: physicochemical. As to the method: The following solutions were prepared in Mixing solvent (MS) at pH 7.0. All solutions were supplemented with ZnCl2 (1 ppm), CaCl2 (100 ppm) and MgCl2 (25 ppm). The concentrations of Zn, Ca and Mg used here, were close to those typically found in exudates from chronic wounds. The pH chosen for the reaction (7.0) would result from the combination of compositions of present invention (pH 5.5) and the exudate from a chronic wound (pH 8.5). Prepared solutions were: EDTA (0.25, 0.50 and 0.75 mg/mL) as indicated in example 1; M0, M13, […] were elaborated according to examples 18 to 21. and LAPS deproteinized: Over a LAPS 24 h sample obtained according to example 1, a deproteinization process was performed using reagents and indications of the commercial kit employed. Measurement of remaining Zinc (unchelated) in the prepared solutions: A commercial Zinc measurement kit (Randox Lab) was used. This is a colorimetric method based on the reaction of Zinc with Dimethylglyoxime and Salicylaldoxin at alkaline pH, giving a colored complex photocolorimetrically measurable at 560 nm. For the determination of Zinc in LAPS, a previous deproteinization step was necessary. Therefore, equal parts of LAPS and deproteinizing reagent (Trichloroacetic Acid 370 mmol/L) were mixed in conical tubes, homogenized and centrifuged for 10 min at 10,000×g. The supernatant was used for the test.

In data set [3] the test system is chicken chorioallantoic membrane. As to the kind of experiment: Chicken Chorioallantoic Membrane Assay (CAM), angiogenesis. The data set is classed as in vivo. Conditions: 300 μl onto the chorioallantoic membrane; 24 and 48 hours; ethosuximide solutions 0.5 and 3.0 mg/mL; FIG. 18. The source says: Angiogenesis is a complex biological process involving the generation of new blood vessels from the pre-existing vasculature. The process involves the cooperation of several different cell types, and in particular involves proliferation, survival, and tissue invasion by activated endothelial cells. Most investigations of angiogenesis include at least one in vivo study. The Chicken Chorioallantoic Membrane Assay (CAM) is suitable for a variety of applications. In this assay, the angiogenic properties of different concentrations of ethosuximide and lactic acid and the mixtures were tested.
Eggs commercial lines with a weight between 30-90 g were used. By using an ovoscope the viability of the chorioallantoic membrane was determined to select only fertilized and viable eggs. […]
Then, 300 μl of the following solutions were slowly placed onto the chorioallantoic membrane: Ethosuximide 3.0 mg/mL; Ethosuximide 0.5 mg/mL; M0; M13; M15; LAPS; Negative control (PBS). Each solution was evaluated by triplicade. […]
Angiogenesis tests: Digital images analysis was made by using the software Image J plus. The length of vascularization (cm) per CAM area (cm^2) was evaluated before solution addition (basal) and after 24 and 48 hours. Then, the percentage of increase of vascularization was calculated.

Data set [4] deals with VEGF. As to the kind of experiment: VEGF expression in macrophages J774 (real-time PCR). Format: cell-based, Murine. Conditions: Macrophages J774 + LPS 25 ng/mL; Ethosuximide 0.5 mg/mL; 24 hours; FIG. 19. The method, then: (§1) Cell lines were grown and maintained following the protocols of the American Type Culture Collection (ATCC, Rockville, MD, USA), using Minimum Essential Medium (MEM), Fetal Bovine Serum (FBS), L-glutamine.
(§2) To evaluate the expression of the VEGF genes, the following cell lines were used: • a. Murine macrophage cell line J774 (ATCC), stimulated with 25 ng/mL of lipopolysaccharides (LPS) from E. coli (L-8274, Sigma). • b. Adult human skin keratinocytes cell line HaCaT(ATCC).
(§3) Cells were plated for 24 hours with Ethosuximide at different concentrations to evaluate their effect on gene expression.
(§4) Monolayers of the J774 Macrophage cell lines and HaCaT Keratinocytes were used, until confluent cells were obtained, which were stimulated with Ethosuximide at 0.5 and 3.0 mg/mL as indicated in example 1, in 12-well plates, at a final volume of 300 μL/well. For the J774 macrophage line, all treatments were supplemented with LPS (25 ng/mL), using MEM 1× with LPS (25 ng/mL) as control (Control+LPS). HaCaT keratinocytes were treated with the concentrations of ethosuximide in MEM with 10% FBS, using 1× MEM as a control. […]
(§5) Levels of VEGF and GAPDH mRNA were measured in triplicate for each sample using the StepOnePlus Real-Time PCR Systems (Applied Biosystems) and the Power Up SYBR Green Master Mix (ROCHE) kit. […] Group means were determined and normalized to the MEM group for each experiment.
Background: Real-time PCR tracks product formation cycle by cycle.

For data set [5], the system named is VEGF. As to the kind of experiment: VEGF expression in keratinocytes HaCaT (real-time PCR). Format: cell-based, human. Conditions: Ethosuximide 3.0 mg/mL, 24 hours, FIG. 19. The method, then:
as §1, §2, §3, §4, §5

Data set [6] concerns Intercellular adhesion molecule-1 (ICAM-1). Conditions: cited from earlier work.
The test system of data set [7] is Staphylococcus aureus MTCC 96. Conditions: cited from earlier work.
Data set [8] concerns Pseudomonas aeruginosa. MTCC741. The settings on record: cited from earlier work.
Data set [9] relates to highly polymerized DNA. As to the kind of experiment: DNAse activity halos in DNAse agar and conservation in time. The data set is classed as biochemical. The settings on record: DNAse 0.97 μg/mL alone (C2); DNAse agar, 24 hours at 32° C. The source says: DNAse agar is a culture medium that contains highly polymerized DNA and agar as solidifying agents. The DNA is the substratum of the deoxyribonuclease enzyme (DNAse) which hydrolyzes it. This medium allows to detect DNAse activity in different samples and microorganisms. The presence of the enzyme could be visualized adding hydrochloric acid 1N. The hydrolyzed deoxyribonucleic acid presents transparency while the polymerized deoxyribonucleic acid precipitates generating resulting in a opacity on the culture media
Plates preparation: DNAse agar plates were prepared according to manufacturer recommendations (Britania, CABA, Argentina). A volume of 20 mL of the molten media was employed reaching an agar height of 2 mm in the plates. Wells of 5 mm o diameter were made over the agar using a sterile punch. Therefore, the sown volume in each well was π×r^2×h=π×(2.5 mm)^2×2 mm=40 mm=40 μL. […]
Analyzed samples: LAPS, M0, M13, M15, M16 (All gelled with hydroxyethyl cellulose) stored at 25° C. and 4° C. DNAse activity was measured once a week for 6 months. […]
Then, the plates were rested and were observed up to no more than 5 minutes after adding the HCl. DNase activity was measured analyzing the transparent evanescence around the planting zone recording in millimeters the halos diameter.

For the molecule `O=C(O)CN(CCN(CC(=O)O)CC(=O)O)CC(=O)O` [EDTA, ethylenediaminetetraacetic acid], the Calcium chelation percentage entry in data set [1] (EDTA 0.25 mg/mL) is reported as “not able to chelate all the available calcium”; in [1] (EDTA at 0.50, 0.75 and 1.00 mg/mL, combination of zinc, calcium and magnesium), “completely”. Also, in data set [2], the Zinc chelation percentage result is reported as “completely chelate”.

As for `CCC1(C)CC(=O)NC1=O` (stereo not shown) [Ethosuximide, ethosuximide], the “percentage of increase of vascularization (angiogenic effect)” value in data set [3] was “showed angiogenic properties although it was better at 0.5 mg/mL than 3.0 mg/mL”. Further, the “VEGF expression level normalized to GAPDH” value in [4] and in data set [5] was “induced” in each case.

With `CC(=O)N[C@@H](CS)C(=O)O` [NAC, N-acetyl cysteine], the ICAM-1 expression entry in [6] is “concentration dependent inhibition”.

As to “XYLENTRA®: synthetically engineered antimicrobial peptide of U.S. Pat. No. 10,285,938 B2”, the antibacterial activity result in [7] and in data set [8] was “significant antibacterial activity” in each case.

B1: DNAse: rh-Dornase alfa (recombinant human DNase, Roche) diluted in mixing solvent; C2 0.97 μg/mL, C4 3.90 μg/mL (protein, UniProt P24855 23-282, looked up)
Deoxyribonuclease-1: LKIAAFNIQTFGETKMSNATLVSYIVQILSRYDIALVQEVRDSHLTAVGKLLDNLNQDAPDTYHYVVSEPLGRNSYKERYLFVYRPDQVSAVDSYYYDDGCEPCGNDTFNREPAIVRFFSRFTEVREFAIVPLHAAPGDAVAEIDALYDVYLDVQEKWGLEDVMLMGDFNAGCSYVRPSQWSSIRLWTSPTFQWLIPDSADTTATPTHCAYDRIVVAGMLLRGAVVPDSALPFNFQAAYGLSDQLAQAISDHYPVEVMLK
For the molecule B1, the “halos of DNAse activity” value in data set [9] is 8-10 mm.
